In test [1] the test system is RBL-2H3 cells. Description: Inhibition of serotonin liberation from IgE-sensitized RBL-2H3 cells after antigen stimulation. The test is classed as cell-based, rat. The settings on record: Rattus norvegicus. The method in brief:
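Rat RBL-2H3 cells labelled with [3H]-serotonin and sensitized with IgE simultaneously, incubated with compound, then challenged with specific antigen. Inhibition derived from [3H]-serotonin released into medium relative to release without compound.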

In test [2] the test system is human basophils. Description: Inhibition of mediator (histamine, peptide leukotriene) liberation from human basophils stimulated with mite antigen. The test is classed as cell-based. The following applies: enzyme immunoassay. The method, boiled down:
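Dextran-separated leukocyte fraction containing basophils from heparinized human blood, in D-PBS(+) with 0.1% BSA, pretreated with compound 15 min at 37 °C, then challenged with mite antigen for 10 min. Released histamine and peptide leukotrienes in supernatant quantified by enzyme immunoassay.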

The target in test [3] is T1, IgE receptor γ chain and 72 kDa tyrosine kinase (Rattus norvegicus, UniProt Q64725).
T1 construct: The phosphorylation experiment of the 72 kDa tyrosine kinase contained in the lysate or cytosol; endogenous in cells; host or cells: RBL-2H3 cell lysate (1% NP-40) or cytosolic fraction
T1 sequence (Q64725 whole entry): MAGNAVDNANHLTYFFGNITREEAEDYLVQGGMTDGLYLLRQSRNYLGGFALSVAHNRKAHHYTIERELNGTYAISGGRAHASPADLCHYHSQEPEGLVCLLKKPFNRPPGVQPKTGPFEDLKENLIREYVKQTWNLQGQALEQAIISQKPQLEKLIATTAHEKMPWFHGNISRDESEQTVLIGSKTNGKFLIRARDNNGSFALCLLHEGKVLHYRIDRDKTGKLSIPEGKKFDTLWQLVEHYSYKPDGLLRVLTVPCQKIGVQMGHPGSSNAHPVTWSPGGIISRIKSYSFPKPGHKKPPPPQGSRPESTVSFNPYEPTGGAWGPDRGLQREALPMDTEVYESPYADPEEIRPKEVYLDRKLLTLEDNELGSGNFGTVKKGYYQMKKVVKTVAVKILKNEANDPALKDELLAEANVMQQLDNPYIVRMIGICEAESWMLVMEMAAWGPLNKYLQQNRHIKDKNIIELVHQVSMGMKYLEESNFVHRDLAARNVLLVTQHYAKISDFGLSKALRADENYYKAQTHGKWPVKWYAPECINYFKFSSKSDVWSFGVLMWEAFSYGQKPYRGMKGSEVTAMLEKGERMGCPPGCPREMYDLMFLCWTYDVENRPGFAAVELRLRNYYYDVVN
Description: Inhibition of binding of IgE receptor γ chain to tyrosine kinase of 72 kDa (kinase phosphorylation in RBL-2H3 lysate or cytosol). In kind it is biochemical. The following applies: Conc. of Compd. 10 μM. The protocol: RBL-2H3 cells which are a cell line generally used in studying IgE-mediated intracellular signal transduction in mast cells and basophils were used in this study. Tyrosine-phosphorylated peptide in the tyrosine activation motif (TAM) region in the IgE receptor γ chain was synthesized by Peptide Institute.
In the experiment, cell lysates or cytosolic fraction of RBL-2H3 cells were used. Cell lysates were prepared by solubilizing 1×10^7 to 5×10^7 cells with a solution containing various protease inhibitors and 1%-NP-40 as a solubilizer. Separately, the cells were homogenized in a Downs homogenizer and centrifuged at 50,000 rpm for 1 hr, and the resulting supernatant was used as the cytosol fraction of the cells. The concentration of the lysate or cytosol was adjusted to 1 mg protein/ml with an isotonic buffer. The phosphorylation experiment of the 72 kDa tyrosine kinase contained in the lysate or cytosol was carried out in the following manner.
An assay buffer [150 mM NaCl, 10 mM KCl, 20 mM Tris (pH 7.5), 0.6 mM MnCl2, 0.5 mM EGTA, 5 mM NaF, 1 mM sodium pyrophosphate and 1 mM sodium orthovanadate] containing the lysate or cytosol in an amount corresponding to […] of protein was incubated together with the compound 101 at 30° C. for 3 min. After adding […] of the peptide in the TAM region containing the phosphorylated tyrosine and […] of ATP, the incubation was further effected at 30° C. for 15 min. After the completion of the reaction, the sample was electrophoresed on a 10% […] gel and a tyrosine kinase of 72 kDa was separated. The activation of this kinase was confirmed by examining the phosphorylation of the tyrosine moiety in the kinase per se by western blotting with the use of anti-tyrosine phosphorylation antibody. Then the extent of the phosphorylation was numerically expressed by using an image analyzer and thus the tyrosine kinase phosphorylation inhibitory ratio of the compound 101 was determined

Test [4] addresses T2, tyrosine kinase of 72 kDa (Rattus norvegicus, UniProt Q64725).
T2 construct: endogenous in cells; host or cells: RBL-2H3 cells
Description: Inhibition of activation (phosphorylation) of tyrosine kinase of 72 kDa due to antigenic stimulation in RBL-2H3 cells. The test is classed as cell-based. The method, then:
RBL-2H3 cells were incubated for 10 min together with a test compound in a PBS buffer containing 0.1% of BSA and 1 mM of calcium. Next, the cells were reacted with an antigen specific for the IgE receptor for 10 min. After the completion of the antigenic stimulation, the cells were allowed to stand in ice for 1 hr in a 10 mM phosphate buffer (pH 7.5) containing a lysis buffer (1% Triton X-100, 0.1% SDS, 0.5% sodium deoxycholate, 50 mM NaCl, 50 mM NaF, 1 mM phenylmethyl sulfonyl fluoride, 50 μg/ml eupeptin, 10 unit/ml aprotonin) and 0.1% of NaN3 followed by centrifugation to give a cell lysate. This lysate was diluted with a buffer for electrophoresis, heated (95° C., 5 min) and then electrophoresed on a 10% SDS-polyacrylamide gel. After the electrophoresis, the sample was electrically transcribed onto a 0.2 μm nitrocellulose membrane and treated with an anti-phosphotyrosine antibody for 1 hr. Then the inhibitory activity was evaluated by the coloring analysis through chemiluminescence.

Where [5] appears, read: histamine, read-out: IC50 (μM) in mediator liberation from human basophils: histamine.
Setting [6] is: peptide leukotriene, read-out: IC50 (μM) in mediator liberation from human basophils: leukotriene.
Setting [7] is: [3H]-serotonin release, IgE-sensitized RBL-2H3 cells, antigen stimulation, read-out: IC50 (μM) in serotonin liberation from RBL-2H3 cells.

Molecules are shown by their SMILES. Like-named read-outs stand apart in the source and are kept apart here. Bounds are passed on as bounds.

T2 sequence (Q64725 whole entry): as above

For the compound `Cc1ccc2c(c1C)N(CCCN1CCC(O)(c3ccccc3)CC1)c1ccccc1[S+]2[O-]` (stereo not drawn) [Example 124], the IC50 in test [1] (RBL-2H3, read-out: IC50 (μM) in serotonin liberation from RBL-2H3 cells) was 2 µM; in test [2] (setting [5]), 10 to 30 µM; in test [2] (setting [6]), 10 µM. For the same compound, the “Inhibitory Strength (%)” value in test [3] and in test [4] (Conc. of Compd. 10 μM) was 100% each time.

In the case of `Cc1ccc2c(c1C)N(CCCNCc1ccccc1)c1ccccc1[S+]2[O-]` (stereo not drawn) [Example 22, 1,2-Dimethyl-10-(3-benzylaminopropyl)-phenothiazine-5-oxide], the results for the IC50 in test [1] (setting [7]), in test [2] (setting [5]) and in test [2] (setting [6]) were 0.1 µM, 10 to 30 µM and 10 µM, respectively. Also, the “Inhibitory Strength (%)” value in test [3] was 80%; in test [4] (Conc. of Compd. 3 μM), 100%.

As to `Cc1ccc2c(c1C)N(CCCN1CCC(Cc3ccccc3)CC1)c1ccccc1[S+]2[O-]` (stereo not drawn) [Example 127], the figures for the IC50 in test [1] (setting [7]), in test [2] (setting [5]) and in test [2] (setting [6]) were 2 µM, 10 to 30 µM and 10 µM, respectively. Also, the “Inhibitory Strength (%)” value in test [3] and in test [4] (Conc. of Compd. 10 μM) was 100% in each case.

For `Cc1ccc2c(c1C)N(CCCN(CCO)Cc1ccccc1)c1ccccc1S2(=O)=O` [Example 202], the IC50 in test [1] (setting [7]) was 6 µM; in test [2] (setting [5]), 10 to 30 µM; in test [2] (setting [6]) it was below 10 µM. Further, in test [4] (Conc. of Compd. 30 μM), the “Inhibitory Strength (%)” value was found to be 80%.

Turning to `Cc1ccc2c(c1C)N(CCN(C)Cc1ccccc1O)c1ccccc1[S+]2[O-]` (stereo not drawn) [Example 179], the values for the IC50 in test [1] (setting [7]), in test [2] (setting [5]) and in test [2] (setting [6]) were 2 µM, 10 to 30 µM and 3 to 10 µM, respectively. In addition, the “Inhibitory Strength (%)” value in test [4] (Conc. of Compd. 10 μM) turned out to be 100%.

As for `Cc1ccc2c(c1C)N(CCCNCc1ccccc1)c1cc(CCO)ccc1S2(=O)=O` [Example 201], the IC50 in test [1] (setting [7]) was 10 µM; in test [2] (setting [5]) it was 10 µM; in test [2] (setting [6]) it was below 10 µM. Also, the “Inhibitory Strength (%)” value in test [4] (Conc. of Compd. 30 μM) is reported as 30-70%.

Values taken from patent US6703388B2, “Nitrogen-containing tricyclic compounds and drugs containing the same” (Eisai Co., Ltd., priority 1996, dated 2004).
